Results from paper PMC3201759 (Journal of proteome research, 2011).
Like-named read-outs stand apart in the source and are kept apart here.

Biological target: T1, mouse Oat1 (mOat1; Oat1/Slc22a6) (Mus musculus, UniProt Q8VC69)
T1 sequence (Q8VC69 1-545): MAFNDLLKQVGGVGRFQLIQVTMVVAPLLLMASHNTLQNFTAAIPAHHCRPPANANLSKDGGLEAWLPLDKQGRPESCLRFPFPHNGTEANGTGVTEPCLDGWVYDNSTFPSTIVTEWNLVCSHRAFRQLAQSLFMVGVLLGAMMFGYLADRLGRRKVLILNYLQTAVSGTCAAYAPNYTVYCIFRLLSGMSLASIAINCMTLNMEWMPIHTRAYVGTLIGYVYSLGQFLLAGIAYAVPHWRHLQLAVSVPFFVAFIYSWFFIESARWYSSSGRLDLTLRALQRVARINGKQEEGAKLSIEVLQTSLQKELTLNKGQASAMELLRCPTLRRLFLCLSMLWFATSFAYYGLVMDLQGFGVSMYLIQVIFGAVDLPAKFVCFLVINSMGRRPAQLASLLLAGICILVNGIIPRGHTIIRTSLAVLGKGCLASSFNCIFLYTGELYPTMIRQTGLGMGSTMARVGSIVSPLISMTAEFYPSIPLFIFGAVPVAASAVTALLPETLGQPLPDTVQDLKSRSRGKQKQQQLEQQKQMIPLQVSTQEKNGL
Experiment: inhibition of 6-carboxyfluorescein uptake, Xenopus oocytes
Assay type: cell-based

IC50 (30 μM 6-carboxyfluorescein tracer, 1 h incubation) [µM] | IC50 [µM] | Structure (SMILES)
22 |  | O=c1c2ncccc2[nH]c2c([N+](=O)[O-])c(O)c([N+](=O)[O-])c(O)c12 [CAS 5435-73-4]
 | 12 | Nc1ccccc1C(=O)C[C@H](N)C(=O)O [kynurenine]
 | 50 | O=C(O)c1cc(O)c2cccc(O)c2n1 [xanthurenic acid]
